Measurements published in the NIST ThermoML archive (doi:10.1021/acs.jced.8b01004).

Test: xn = mol fraction of the nth substance listed
Conditions: 100 kPa, Liquid; for viscosity: Falling or rolling sphere viscometry; for mass density: Vibrating tube method

OC1CCCC1 [cyclopentanol] + CC1CCCCC1
Conditions	mass density [kg/m3]	viscosity [mPa·s]
293.15 K, x2 = 0	946.99	11.88
293.15 K, x2 = 0.0995	924.17	7.639
293.15 K, x2 = 0.2005	902.36	4.929
293.15 K, x2 = 0.2971	882.38	3.505
293.15 K, x2 = 0.4001	862.34	2.41
293.15 K, x2 = 0.5014	843.89	1.793
293.15 K, x2 = 0.5994	827.06	1.396
293.15 K, x2 = 0.6828	813.6	1.166
293.15 K, x2 = 0.7949	796.76	0.96
293.15 K, x2 = 0.8975	782.42	0.826
298.15 K, x2 = 0	943.05	9.722
298.15 K, x2 = 0.0995	920.12	6.316
298.15 K, x2 = 0.2005	898.22	4.183
298.15 K, x2 = 0.2971	878.17	3.03
298.15 K, x2 = 0.4001	858.07	2.123
298.15 K, x2 = 0.5014	839.58	1.602
298.15 K, x2 = 0.5994	822.73	1.268
298.15 K, x2 = 0.6828	809.25	1.071
298.15 K, x2 = 0.7949	792.38	0.89
298.15 K, x2 = 0.8975	778.04	0.772
303.15 K, x2 = 0	939.05	8.068
303.15 K, x2 = 0.0995	916.02	5.48
303.15 K, x2 = 0.2005	894.03	3.587
303.15 K, x2 = 0.2971	873.91	2.644
303.15 K, x2 = 0.4001	853.76	1.885
303.15 K, x2 = 0.5014	835.24	1.445
303.15 K, x2 = 0.5994	818.37	1.16
303.15 K, x2 = 0.6828	804.87	0.989
303.15 K, x2 = 0.7949	787.97	0.827
303.15 K, x2 = 0.8975	773.63	0.722
308.15 K, x2 = 0	935	7.077
308.15 K, x2 = 0.0995	911.87	4.66
308.15 K, x2 = 0.2005	889.79	3.099
308.15 K, x2 = 0.2971	869.61	2.324
308.15 K, x2 = 0.4001	849.41	1.685
308.15 K, x2 = 0.5014	830.86	1.312
308.15 K, x2 = 0.5994	813.97	1.065
308.15 K, x2 = 0.6828	800.45	0.916
308.15 K, x2 = 0.7949	783.54	0.771
308.15 K, x2 = 0.8975	769.19	0.677
313.15 K, x2 = 0	930.91	6.04
313.15 K, x2 = 0.0995	907.67	4.046
313.15 K, x2 = 0.2005	885.51	2.695
313.15 K, x2 = 0.2971	865.27	2.055
313.15 K, x2 = 0.4001	845.02	1.514
313.15 K, x2 = 0.5014	826.44	1.196
313.15 K, x2 = 0.5994	809.53	0.982
313.15 K, x2 = 0.6828	796	0.851
313.15 K, x2 = 0.7949	779.07	0.721
313.15 K, x2 = 0.8975	764.73	0.636
318.15 K, x2 = 0	926.75	5.19
318.15 K, x2 = 0.0995	903.41	3.487
318.15 K, x2 = 0.2005	881.17	2.361
318.15 K, x2 = 0.2971	860.88	1.828
318.15 K, x2 = 0.4001	840.59	1.368
318.15 K, x2 = 0.5014	821.99	1.093
318.15 K, x2 = 0.5994	805.06	0.907
318.15 K, x2 = 0.6828	791.51	0.793
318.15 K, x2 = 0.7949	774.57	0.677
318.15 K, x2 = 0.8975	760.23	0.6
323.15 K, x2 = 0	922.53	4.441
323.15 K, x2 = 0.0995	899.09	3.037
323.15 K, x2 = 0.2005	876.78	2.081
323.15 K, x2 = 0.2971	856.11	1.635
323.15 K, x2 = 0.4001	836.11	1.241
323.15 K, x2 = 0.5014	817.49	1.004
323.15 K, x2 = 0.5994	800.54	0.842
323.15 K, x2 = 0.6828	786.98	0.74
323.15 K, x2 = 0.7949	770.03	0.636
323.15 K, x2 = 0.8975	755.7	0.566
328.15 K, x2 = 0	918.24	3.83
328.15 K, x2 = 0.0995	894.72	2.674
328.15 K, x2 = 0.2005	872.33	1.843
328.15 K, x2 = 0.2971	851.95	1.472
328.15 K, x2 = 0.4001	831.58	1.13
328.15 K, x2 = 0.5014	812.94	0.924
328.15 K, x2 = 0.5994	795.97	0.782
328.15 K, x2 = 0.6828	782.41	0.692
328.15 K, x2 = 0.7949	765.45	0.599
328.15 K, x2 = 0.8975	751.14	0.537
333.15 K, x2 = 0	913.89	3.312
333.15 K, x2 = 0.0995	890.28	2.366
333.15 K, x2 = 0.2005	867.83	1.642
333.15 K, x2 = 0.2971	847.4	1.329
333.15 K, x2 = 0.4001	827	1.033
333.15 K, x2 = 0.5014	808.34	0.853
333.15 K, x2 = 0.5994	791.36	0.731
333.15 K, x2 = 0.6828	777.79	0.65
333.15 K, x2 = 0.7949	760.84	0.566
333.15 K, x2 = 0.8975	746.55	0.51
338.15 K, x2 = 0	909.48	2.886
338.15 K, x2 = 0.0995	885.78	2.109
338.15 K, x2 = 0.2005	863.28	1.471
338.15 K, x2 = 0.2971	842.8	1.205
338.15 K, x2 = 0.4001	822.37	0.948
338.15 K, x2 = 0.5014	803.69	0.79
338.15 K, x2 = 0.5994	786.71	0.683
338.15 K, x2 = 0.6828	773.13	0.611
338.15 K, x2 = 0.7949	756.2	0.536
338.15 K, x2 = 0.8975	741.93	0.486
343.15 K, x2 = 0	904.99	2.53
343.15 K, x2 = 0.0995	881.21	1.879
343.15 K, x2 = 0.2005	858.67	1.326
343.15 K, x2 = 0.2971	838.13	1.108
343.15 K, x2 = 0.4001	817.69	0.873
343.15 K, x2 = 0.5014	799	0.734
343.15 K, x2 = 0.5994	782.01	0.641
343.15 K, x2 = 0.6828	768.43	0.577
343.15 K, x2 = 0.7949	751.51	0.517
343.15 K, x2 = 0.8975	737.27	0.464
